“Also recorded” adds a separate entry of the source.
Experiments:
Dx5 cells = test: Cell viability by annexin and propidium iodide staining/FACS with z-VAD.fmk, Dx5 cells; details: Homo sapiens, read-out: cell viability in PG490-treated Dx5 cells
Method: Cell death reagents and assays. Cell viability was measured by an MTT assay as recently described (Lee et al. (1999) J. Biol. Chem. 274:13451-13455. z-VAD-fluoromethylketone (z-VAD.fmk) was obtained from Alexis Biochemicals, San Diego, Calif. The effect of z-VAD.fmk on cell viability was analyzed by annexin and propidium iodide staining followed by FACS analysis according to the manufacturer's protocol (Clontech Laboratories, Palo Alto, Calif.). The analysis of apoptosis in histologic sections was done by terminal deoxynucleotidyl transferase (TdT)-mediated d-UTP nick end labeling (TUNEL) of slides from paraffin sections of day 3 tumors harvested from the mice 24 h after the second of two daily treatments with PG490-88 or saline. TUNEL staining was done according to the manufacturer's protocol (Boehringer Mannheim, Indianapolis, Ind.) and then the histology slides were counterstained with methyl green. DNA was isolated from cells for analysis of internucleosomal DNA laddering followed by agarose gel electrophoresis and ethidium bromide staining.

p21 = p21 protein level by immunoblot in MCF-7 cells; type: cell-based, human; details: triptolide-treated MCF-7 cells
Method: Immunoblotting. At 8 hours after triptolide and/or doxorubicin treatment cells were harvested at the times indicated and lysed using HNET buffer (50 mM HEPES pH 7.5, 100 mM NaCl, 1 mM EGTA, and 1% Triton X-100) supplemented with 1 mM DTT, 1 mM PMSF and protease inhibitors cocktail (Boehringer Mannheim, Germany). 35 μg of protein was loaded on 10% SDS-PAGE followed by transferring to PVDF membrane. Immunoblotting was performed as previously described using a p53 mouse monoclonal antibody from Oncogene Research Products (Lee et al. (1999) J Biol Chem 274:13451-5).
Immunoblot analysis using other antibodies was performed as described above. The band intensity was measured by NIH Image 1.62.

phosphorylated p53 = test: p53 phosphorylation by in vivo [32P]orthophosphate labeling of HT1080 cells; type: cell-based, human; details: HT1080, triptolide 20 ng/ml, 3 h
Method: In Vivo [^32P]Orthophosphate Labeling. Subconfluent HT1080 cells were pretreated with 20 ng/ml triptolide for 2 h in Dulbecco's modified Eagle's medium supplemented with 10% fetal bovine serum and antibiotics. These cells were washed twice with 37 ° C. labeling medium (Dulbecco's modified Eagle's medium, 10% fetal bovine serum dialyzed against phosphate-free) lacking sodium phosphate. Cells were then labeled for an additional 1 h with the labeling medium containing 1 mCi/ml [32P]orthophosphate and 20 ng/ml triptolide. The labeling medium was removed, and the cells were washed three times with cold Tris-buffered saline (TBS). The cells were scraped in 1 ml of lysis buffer (1% Nonidet P40, 1% sodium deoxycholate, 0.1% SDS, 0.15 M NaCl, 0.01 M sodium phosphate, pH 7.2, 2 mM EDTA, 50 mM sodium fluoride, 0.2 mM sodium vanadate, and 100 units/ml aprotinin) and kept on ice for 10 min. Lysates were passed through 27-gauge needles and spun at 11,000×g for 10 min, and 100 μg of the supernatants were subjected to immunoprecipitation with p53 mAb (Ab-6) conjugated with agarose for 4 h. Samples were then spun at 2500 rpm at 4° C. for 5 min and washed three times with the lysis buffer. The pellets were boiled in SDS sample buffer and analyzed on 10% SDS-PAGE. The bands were visualized and quantified by Optiquant Phosphorlmager.

HT1080 cells = test: Apoptosis by Annexin V and Propidium Iodide staining, HT1080 cells; type: cell-based, human; design: unit of the concentration uncertain; details: HT1080, 20 h; PG490 5 ng/ml; CPT-11 (5 µM) alone, (5 μM) in combination; PG490 pretreatment 4 h then CPT-11 16 h
Method: HT1080 cells were treated as shown and harvested for analysis of apoptosis by Annexin V and Propidium Iodide staining 20 h after treatment. In experiments with a combination of PG490 and CPT-11, cells were pretreated with PG490 for 4 h followed by the addition of CPT-11 for 16 h.

p53 = p53 translocation into the nucleus, sub-cellular fractionation of MCF-7 cells; type: cell-based, human; details: MCF-7, triptolide 20 ng/ml
Method: Sub-cellular fractionation of MCF-7 cells. After treatment with triptolide (5 or 20 ng/ml) and/or doxorubicin (100 nM) cytosolic and nuclear extracts were prepared as previously described (Lee et al. (1988) Gene Anal Tech 5:22-31) and 50 μg of each extract was used in SDS/PAGE immunoblot analysis of p53.

H23 tumor cells = test: Nude mouse xenograft, prevention of H23 tumor formation; type: in vivo, nude mice
Method: Nude mouse xenograft model. […] Tumor cells were grown and harvested as described above.
PG490-88 prevents human tumor development in nude mice. The results reported above show cytotoxicity of PG490 on tumor cells in vitro. To extend these studies to an in vivo setting using human tumor cell xenografts, PG490-88 was used, a more easily administered, water soluble prodrug of PG490. H23 tumor cells were implanted intradermally in nude mice and the animals were left untreated or were injected IP daily with PG490-88 starting at the time of implantation. Tumors arose in 5/5 of the untreated mice but no tumors were observed after 5 or 7 weeks of dosing with PG490-88 at doses ranging from 0.25 to 0.75 mg/kg/day (Table 1). PG490-88 treatment was stopped after week 5 in 3 mice per group and was continued for an additional 2 weeks in 2 mice per group. A visible tumor arose during the sixth week in one animal in each group in which PG490-88 dosed at 0.5 mg/kg/day or less was stopped but no more visible tumors appeared in these groups after week 6 (Table 1).
Nude mice were implanted with H23 tumor cells (day 0). Mice were left untreated, or were injected IP with PG490-88 daily from the day of tumor cell implantation for 5 consecutive days per week. PG490-88 was administered for 5 weeks. The untreated group consisted of 5 mice. Three mice in each of the treatment groups received PG490-88 for 5 weeks, and 2 mice in each of these groups were given PG490-88 for 2 additional weeks (7 weeks total). The tumor appeared only in mice in which treatment had been stopped after 5 weeks.

SMILES	viability at 0.02 µg/mL (Dx5 cells) [%]	decrease in the level of p21 protein (p21) [fold]	increase in phosphorylated p53 compared with untreated cells (phosphorylated p53)	Apoptotic Cells (%) (HT1080 cells)	localisation of the majority of p53 (p53)	Number of mice in group with a tumor (H23 tumor cells; PG490-88 0.25 mg/kg/day IP, Week 5)	Number of mice in group with a tumor (H23 tumor cells; PG490-88 0.25 mg/kg/day IP, Week 6)	Number of mice in group with a tumor (H23 tumor cells; PG490-88 0.25 mg/kg/day IP, Week 10)	Number of mice in group with a tumor (H23 tumor cells; PG490-88 0.375 mg/kg/day IP, Week 5)	Number of mice in group with a tumor (H23 tumor cells; PG490-88 0.375 mg/kg/day IP, Week 6)	Number of mice in group with a tumor (H23 tumor cells; PG490-88 0.375 mg/kg/day IP, Week 10)	Number of mice in group with a tumor (H23 tumor cells; PG490-88 0.5 mg/kg/day IP, Week 5)	Number of mice in group with a tumor (H23 tumor cells; PG490-88 0.5 mg/kg/day IP, Week 6)	Number of mice in group with a tumor (H23 tumor cells; PG490-88 0.5 mg/kg/day IP, Week 10)	Number of mice in group with a tumor (H23 tumor cells; PG490-88 0.75 mg/kg/day IP, Week 5)	Number of mice in group with a tumor (H23 tumor cells; PG490-88 0.75 mg/kg/day IP, Week 6)	Number of mice in group with a tumor (H23 tumor cells; PG490-88 0.75 mg/kg/day IP, Week 10)	H23 tumor formation (H23 tumor cells; PG490-88 0.75 mg/kg/day, 10 weeks of observation, sodium salt, 0.75 mg/kg/day)
CC(C)[C@]12O[C@H]1[C@@H]1O[C@]13[C@]1(O[C@H]1C[C@H]1C4=C(CC[C@@]13C)C(=O)OC4)[C@@H]2O [PG490, triptolide]	15	3	2-3 fold	13.5	translocated into nuclei													
CC(C)[C@]12O[C@H]1[C@@H]1O[C@]13[C@]1(O[C@H]1C[C@H]1C4=C(CC[C@@]13C)C(=O)OC4)[C@@H]2OC(=O)CCC(=O)[O-].[Na+] [PG490-88, 14-succinyl triptolide sodium salt]						0/5	1/5	1/5	0/5	1/5	1/5	0/5	1/5	1/5	0/5	0/5	0/5	No visible tumors developed in any of the mice; also recorded: completely prevented
